Source: patent publication US6828450B2, “Triptycene analogs” (Kansas State University Research Foundation, priority 2000, dated 2004)
Entries after “also recorded” stand apart in the source; their conditions may differ. Where two headings read alike, the source gives them in different places.

Experiments:
L1210 cells [1] = experiment: cells; conditions: for cytotoxicity at 0.041 µM: read-out: % inhibition of L1210 cell viability; for inhibitory effect on L1210 cell viability: 256 nM, 4 days
Description: FIG. 1. […] For tumor cell growth and viability, L1210 cells were respectively seeded in triplicate at initial densities of 1×10^4 and 1.11×10^4 cells/0.5 ml/well in RPMI 1640 medium containing 7.5% FCS and penicillin (100 IU/ml)-streptomycin (100 μg/ml), and grown for 4 days in the presence or absence (control) of 256 nM concentrations of the indicated compounds in a humidified incubator at 37° C. with 5% CO2 in air. Cell density was monitored using a Coulter counter. […] The ability of viable cells/0.5 ml to bioreduce 0.1 ml of MTS:PMS (20:1) reagent over a 3-h incubation period at 37° C. was assessed by measuring the absorbamce of the water-soluble formazan products at A490 nm.
FIG. 4. […] Cells were seeded in triplicate at initial densities of 100,000 or 11,100 cells/0.5 ml/well and respectively incubated for 2 or 4 days in the presence or absence (control) of the indicated concentrations of drugs, which are plotted on a logarithmic scale. The ability of viable cells/0.5 ml to bioreduce 0.1 ml of MTS:PMS (20:1) reagent over a 3-h incubation period was assessed as described in FIG. 1.
TT0 was purchased from Aldrich (Milwaukee, Wis.). All solutions of synthetic TTs and tricyclic pyrone H10, vincristine (VCR; a gift from Lilly Researeh Laboratories, Indianapolis, Ind.) and camptothecin (CPT; from Sigma Chemical Co., St Louis, Mo.) were dissolved and diluted in dimethyl sulfoxide (DMSO), whereas daunomycin (DAU) (from Sigma) solutions were prepared in 0.1 M potassium phosphate buffer, pH 7.4, containing 0.9% NaCl. Suspension cultures of murine L1210 lymphocytic leukemia cells (American Type Culture Collection, Rockville, Md.) were maintained in continuous exponential growth by twice-a-week passage in RPMI 1640 medium supplemented with 7.5% fortified bovine calf serum (FCS; HyClone Laboratories, Logan, Utah) and penicillin (100 IU/ml)-streptomycin (100 μg/ml), and incubated in the presence or absence of drugs at 37° C. in a humidified atmosphere containing 5% CO2. […] Control cells incubated in the absence of drugs were similarly treated with vehicle only and, in every experiment, all incubates received the same volume of solvent. For drug removal, incubates were spun at 200×g for 10 min, drug-containing supernatants were discarded, and intact cells were washed thrice with 1 ml of the above RPMI 1640 culture medium and resuspended in 0.5 ml of fresh medium for further incubation.
L1210, HL-60-S, HL60-RV and HL-60-R8 cells suspended in FCS-containing RPMI 1640 medium were grown in 48-well Costar cell culture plates for up to 4 days in the presence or absence of drugs to evaluate drug cytotoxicity.

L1210 cells [2] = experiment: Nucleoside transport (30-sec cellular uptake) in L1210 cells; type: cell-based, murine
Description: FIG. 10. Concentration-dependent inhibition of nucleoside transport by the TT analog TT2 in L1210 cells in vitro. […] After washing thrice with PBS, intact cell pellets were harvested by centrifugation, incubated for 30 min in 1 ml of HLB containing 0.2% Triton X-100, and these lysates were mixed with scintillation cocktail and counted to estimate the cellular uptake of ^3H-thymidine. Results are expressed as % of ^3H-thymidine transported into vehicle-treated control cells over 30 sec (15,031±872 cpm; 100±6%; striped area).
FIG. 11. Comparison of the inhibitory effects of novel TT analogs on DNA synthesis (open) and nucleoside transport (striped) in L1210 cells in vitro. The cellular uptake of ^3H-thymidine (striped) and the rate of ^3H-thymidine incorporation into DNA (open) were determined in cells (1.38×10^6/0.5 ml of RPMI 1640 medium) respectively preincubated at 37° C. for 15 or 90 min in the presence or absence (control) of 7 μM concentrations of the indicated compounds. For the cellular transport of nucleosides, preincubated cells were then exposed to 1 μCi of ^3H-thymidine for 30 sec at 37° C. Results are expressed as % of ^3H-thymidine transported into vehicle-treated control cells over 30 sec (15,539±1,767 cpm; 100±11%; striped control). For DNA synthesis, preincubated cells were then pulse-labeled with 1 μCi of ^3H-thymidine for an additional 30 min at 37° C. Results are expressed as % of ^3H-thymidine incorporation into DNA in vehicle-treated control cells over 30 min (28,505±2,594 cpm; 100±9%; open control). The blank value (1,075±171 cpm) for cells incubated and pulse-labeled at 2° C. with 1 μCi of ^3H-thymidine has been substracted from the results. Bars: means±SD (n=3). ^aNot different from TT3, TT7, TT9 and TT11; ^bP<0.01, smaller than TT1 but not different from TT13; ^cnot different from control; ^dP<0.025, greater than TT1; ^eP<0.05, smaller than control.
FIG. 12. Irreversibility of the inhibitory effects of the novel TT analog TT2 on DNA synthesis (open) and nucleoside transport (striped) in L1210 cells in vitro. […] The cellular uptake of ^3H-thymidine (striped) and the rate of ^3H-thymidine incorporation into DNA (open) were determined in cells (1.64×10^6/0.5 ml of RPMI 1640 medium) respectively preincubated at 37° C. for 15 or 60 min in the presence or absence (control) of 10 and 25 μM TT2 or 25 μM H10. The protocol of the experiments and the determination of the results were identical to those of FIGS. 9 and 10, except that, after preincubation, either the drugs were maintained in the culture medium (+) or the cells were spun, washed, and resuspended in fresh medium in order to remove the drugs (−). After preincubation, vehicle-treated controls were similarly spun and washed. For the cellular transport of nucleosides, preincubated cells were then exposed, in the presence (+) or absence (−) of TT2 or H10, to 1 μCi of ^3H-thymidine for 30 sec at 37° C. Results are expressed as % of ^3H-thymidine transported into vehicle-treated control cells over 30 sec (11,054±754 cpm; 100±7%; striped control+; 14,486±1,260 cpm; 100±9%; striped control−). For DNA synthesis, preincubated cells were then pulse-labeled with 1 μCi of ^3H-thymidine for an additional 30 min at 37° C. in the presence (+) or absence (−) of TT2 or H10. Results are expressed as % of ^3H-thymidine incorporation into DNA in vehicle-treated control cells over 30 min (34,052±1,566 cpm; 100±5%; open control+; 28,811±2,506 cpm; 100±9%; open control−). The blank value (1,328±86 cpm) for cells incubated and pulse-labeled at 2° C. with 1 μCi of ^3H-thymidine has been substracted from the results. Bars: means±SD (n=3).
L1210 cells (about 1.5×10^6 cells/0.5 ml) were preincubated for 15 min at 37° C. in the presence or absence of TTs and then exposed to 1 μCi of ^3H-thymidine for only 30 sec to assess the cellular uptake of nucleoside over such very short period of time. […]

[3] = read-out: IC50 (concentration inhibiting by 50% the viability of L1210 leukemic cells), day 4, Table 2 series

COc1cccc2c1C(=O)c1c(O)c3c(c(O)c1C2=O)C[C@@](O)(C(C)=O)C[C@@H]3O[C@H]1C[C@H](N)[C@H](O)[C@H](C)O1 [DAU, daunomycin, reference compound]
times DAU is more cytotoxic than TT2 (L1210 cells [1]): about 3.5 times
cytotoxicity at 0.041 µM (L1210 cells [1]; Mus musculus, L1210, 48 h): 32%
IC50 (L1210 cells [1]; Mus musculus, L1210, 48 h, read-out: IC50, inhibition of L1210 cell viability): 70 nM
cytotoxicity at 0.041 µM (L1210 cells [1]; Mus musculus, L1210, 96 h): 65%
IC50 (L1210 cells [1]; Mus musculus, L1210, 96 h, read-out: IC50 (concentration inhibiting by 50% the viability of L1210 leukemic cells)): 41 nM
IC50 (L1210 cells [1]; Mus musculus, L1210, 96 h, read-out: IC50, inhibition of L1210 cell viability): 30 nM
effect of DAU on cellular transport of nucleosides (L1210 cells [2]; 15-min treatment, 30-sec uptake, 10 μM DAU): inactive; also recorded: totally unable

COC1=CC(=O)C2=C(C1=O)C1C3=C(C(=O)C=CC3=O)C2c2ccccc21 (stereo not drawn) [TT2, 2-Methoxy-9,10-dihydro-9,10-[1′,2′]benzenoanthracene-1,4,5,8-tetraone]
IC50 (L1210 cells [1]; [3]): 270 nM
IC50 (L1210 cells [1]; read-out: IC50, inhibition of L1210 cell viability, day 2): 250 nM
IC50 (L1210 cells [1]; read-out: IC50, inhibition of L1210 cell viability, day 4): 100 nM
% inhibition of nucleoside transport (L1210 cells [2]; 10 μM TT2, 15-min preincubation): 67%
effect on nucleoside transport (L1210 cells [2]; 25 μM TT2): totally inhibited
% inhibition of nucleoside transport (L1210 cells [2]; 25 μM TT2, 15-min preincubation): 93%
reversibility of the inhibition of nucleoside transport upon drug removal (L1210 cells [2]; 10 and 25 μM TT2 or 25 μM H10, 15-min preincubation): irreversible
IC50 (L1210 cells [2]; 15-min pretreatment, 30-sec uptake, read-out: IC50, inhibition of cellular transport of nucleosides): 6000 nM

COC(=O)C1=C(C(=O)OC)C[C@H]2C(=O)C3=C(C(=O)[C@H]2C1)C1C2=C(C(=O)[C@H]4CC(C(=O)OC)=C(C(=O)OC)C[C@H]4C2=O)C3c2ccccc21 [TT4, (4aS*,7aR*,11aS*,14aR*)-Tetramethyl 1,4,4a,5,6,7,7a,8,11,11a,12,13,14,14a-tetradecahydro-5,7,12,14-tetraoxo-6,13-[1′,2′]benzenopentacene-2,3,9,10-tetracarboxylate]
inhibitory effect on L1210 cell viability (L1210 cells [1]): inactive
effect on nucleoside transport (L1210 cells [2]; 7 μM, 15 min): alter neither

COC(=O)C1=C(C(=O)OC)C[C@H]2[C@@H](C1)[C@@H](O)C1=C(C3C4=C(C1c1ccccc13)[C@@H](O)[C@H]1CC(C(=O)OC)=C(C(=O)OC)C[C@H]1[C@H]4O)[C@H]2O [TT12, (4aS*,5S*,7R*,12S*,14R*,7aR*,11aS*,14aR*)-Tetramethyl 1,4,4a,5,6,7,7a,8,11,11a,12,13,14,14a-tetradecahydro-5,7,12,14-tetrahydroxy-6,13-[1′,2′]benzenopentacene-2,3,9,10-tetracarboxylate]
inhibitory effect on L1210 cell viability (L1210 cells [1]): inactive
effect on nucleoside transport (L1210 cells [2]; 7 μM, 15 min): alter neither

COC1=C(Br)C(=O)C2=C(C1=O)C1C3=C(C(=O)C=C(N(C)C)C3=O)C2c2ccccc21 (stereo not drawn) [TT16, 2-Bromo-3-methoxy-6-(dimethylamino)-9,10-dihydro-9,10-[1′,2′]benzenoanthracene-1,4,5,8-tetraone]
IC50 (L1210 cells [1]; [3]): 300 nM
potency on cellular transport of adenosine and thymidine compared with TT2 (L1210 cells [2]; FIG. 13): as potent as TT2
